Columns and labels:
CDC7 = CDC7 (Homo sapiens, UniProt O00311); assay: CDC7 inhibition, biochemical chemiluminescence assay (Kinase Glo, IC50 determination); conditions: Table 1 activity class; symbol given only if active; read-out: CDC7 IC50 (Activity A)
Procedure: Characterization of CDC7 Inhibition in a Biochemical Chemiluminesence Assay (IC50 Determination):
The IC50 evaluation of compounds against the CDC7 enzyme was performed in a Chemiluminesence assay utilizing a Greiner 384-well white binding plate format. […] Upon addition of 10 μL of CDC-7 (GB) to the designated well plates and subsequent incubation for ten minutes at ambient temperature, 10 μL of ATP mix in Tris Base was added. Following an incubation period of 90 minutes at ambient temperature (24-27° C.), 20 μL of Kinase Glo (Promega) was added to measure kinase activity by quantitating the amount of ATP remaining in solution. The luminescence was measured following a Luciferase Protocol on either EnVision or Victor plate readers.

[1] = target: PIM (PIM-1, PIM-2, and/or PIM-3); assay: PIM-1, PIM-2 and PIM-3 inhibition, biochemical chemiluminescence assays (Kinase Glo, IC50 determination); conditions: Table 1 activity class; PIM refers to PIM-1, PIM-2, and/or PIM-3; read-out: PIM IC50 (Activity B)
CK2 = CK2 (Homo sapiens, UniProt P68400); assay: CK2 inhibition, biochemical chemiluminescence holoenzyme assay (Kinase Glo, IC50 determination); conditions: Table 1 activity class; symbol given only if active; read-out: CK2 IC50 (Activity C)
Summary of the method: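 Holoenzyme CK2 assay; compounds pre-incubated with substrate and enzyme, then reacted 150 min at 24-27° C. Remaining ATP measured as luminescence with Kinase Glo, and IC50 derived from the signal.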

CK2, sequence (P68400 whole entry): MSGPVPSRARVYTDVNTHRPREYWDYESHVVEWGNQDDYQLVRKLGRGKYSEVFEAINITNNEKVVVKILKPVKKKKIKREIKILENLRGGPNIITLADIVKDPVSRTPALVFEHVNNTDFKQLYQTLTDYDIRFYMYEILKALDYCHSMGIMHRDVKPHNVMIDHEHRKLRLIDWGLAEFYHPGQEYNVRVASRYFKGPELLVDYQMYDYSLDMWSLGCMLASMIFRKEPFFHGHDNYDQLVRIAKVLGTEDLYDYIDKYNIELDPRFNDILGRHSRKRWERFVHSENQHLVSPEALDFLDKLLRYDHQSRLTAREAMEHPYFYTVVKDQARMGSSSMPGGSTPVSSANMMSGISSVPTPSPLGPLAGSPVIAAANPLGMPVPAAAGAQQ
CK2, sequence (P67870 whole entry partner): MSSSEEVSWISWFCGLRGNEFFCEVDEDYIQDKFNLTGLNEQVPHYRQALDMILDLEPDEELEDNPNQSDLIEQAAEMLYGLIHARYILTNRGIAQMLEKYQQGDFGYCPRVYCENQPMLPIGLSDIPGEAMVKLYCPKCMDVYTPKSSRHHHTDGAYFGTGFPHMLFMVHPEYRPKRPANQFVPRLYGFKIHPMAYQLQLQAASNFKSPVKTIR
CDC7, sequence (O00311 whole entry): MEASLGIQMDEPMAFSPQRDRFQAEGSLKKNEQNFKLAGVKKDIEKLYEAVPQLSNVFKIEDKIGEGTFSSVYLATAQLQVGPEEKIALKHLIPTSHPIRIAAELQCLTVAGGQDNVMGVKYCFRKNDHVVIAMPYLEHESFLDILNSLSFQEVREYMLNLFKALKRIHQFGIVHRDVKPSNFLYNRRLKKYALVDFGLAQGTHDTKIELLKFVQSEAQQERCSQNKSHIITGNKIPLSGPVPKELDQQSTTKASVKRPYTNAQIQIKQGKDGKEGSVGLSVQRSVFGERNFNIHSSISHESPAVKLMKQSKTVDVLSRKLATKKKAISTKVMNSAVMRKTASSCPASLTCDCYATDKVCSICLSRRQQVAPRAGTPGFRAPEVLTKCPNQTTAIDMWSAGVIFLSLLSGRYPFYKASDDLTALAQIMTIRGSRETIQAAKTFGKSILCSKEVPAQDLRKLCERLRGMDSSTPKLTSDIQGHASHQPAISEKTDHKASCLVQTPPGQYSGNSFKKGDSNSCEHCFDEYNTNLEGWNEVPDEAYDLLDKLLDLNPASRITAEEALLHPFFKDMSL
CDC7, sequence (Q9UBU7 whole entry partner): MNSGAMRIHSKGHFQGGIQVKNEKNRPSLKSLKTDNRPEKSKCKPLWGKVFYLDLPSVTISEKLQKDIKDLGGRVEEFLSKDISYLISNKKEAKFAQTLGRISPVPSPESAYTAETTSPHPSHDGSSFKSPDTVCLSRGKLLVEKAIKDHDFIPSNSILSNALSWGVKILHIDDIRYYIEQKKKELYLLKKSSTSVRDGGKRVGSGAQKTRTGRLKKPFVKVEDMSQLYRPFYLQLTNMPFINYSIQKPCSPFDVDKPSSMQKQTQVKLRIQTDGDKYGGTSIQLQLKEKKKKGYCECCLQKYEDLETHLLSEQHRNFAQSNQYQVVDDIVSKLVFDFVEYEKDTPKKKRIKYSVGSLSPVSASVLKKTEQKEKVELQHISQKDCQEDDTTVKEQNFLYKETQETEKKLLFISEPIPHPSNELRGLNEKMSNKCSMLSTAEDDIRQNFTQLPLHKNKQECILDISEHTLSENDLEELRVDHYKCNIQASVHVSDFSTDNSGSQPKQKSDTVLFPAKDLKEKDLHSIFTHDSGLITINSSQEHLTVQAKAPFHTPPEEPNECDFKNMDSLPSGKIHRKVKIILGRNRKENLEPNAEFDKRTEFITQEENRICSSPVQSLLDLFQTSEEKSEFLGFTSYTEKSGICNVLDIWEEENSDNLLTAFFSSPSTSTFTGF

| IC50 (CDC7) | IC50 [1] | IC50 (CK2) | Structure (SMILES) |
| --- | --- | --- | --- |
| < 10 µM |  |  | O=c1[nH]c(-c2ccccc2Cl)nc2c1oc1ccc(Br)cc12 [Compound 30, 8-Bromo-2-(2-chlorophenyl)[1]benzofuro[3,2-d]pyrimidin-4(3H)-one] |
| < 10 µM |  |  | COc1ccc2oc3c(=O)[nH]c(-c4ccccc4Cl)nc3c2c1 [Compound 32, 2-(2-Chlorophenyl)-8-(methyloxy)[1]benzofuro[3,2-d]pyrimidin-4(3H)-one] |
|  | < 10 µM | < 10 µM | CN(Cc1nc2c(oc3ccc(Br)cc32)c(=O)[nH]1)CC(O)CO (stereo not shown) [Compound 409, 8-bromo-2-{[(2,3-dihydroxypropyl)(methyl)amino]methyl}[1]benzofuro[3,2-d]pyrimidin-4(3H)-one] |
|  | < 10 µM | < 10 µM | O=c1[nH]c(CN(CCO)CCO)nc2c1oc1ccc(Br)cc12 [Compound 410, 2-{[bis(2-hydroxyethyl)amino]methyl}-8-bromo[1]benzofuro[3,2-d]pyrimidin-4(3H)-one] |
|  | < 10 µM | < 10 µM | O=C(NCc1ccccc1Cl)C1(O)CCN(Cc2nc3c(oc4ccc(Br)cc43)c(=O)[nH]2)C1 (stereo not shown) [Compound 411, ′1-[(8-bromo-4-oxo-3,4-dihydro[1]benzofuro[3,2-d]pyrimidin-2-yl)methyl]-N-[(2-chlorophenyl)methyl]-3-hydroxypyrrolidine-3-carboxamide] |
|  | < 10 µM | < 10 µM | O=C(Nc1ccncc1)Nc1ccc(-c2nc3c(oc4ccc(Br)cc43)c(=O)[nH]2)c(Cl)c1 [Compound 415, 1-[4-(8-bromo-4-oxo-3,4-dihydro[1]benzofuro[3,2-d]pyrimidin-2-yl)-3-chlorophenyl]-3-pyridin-4-ylurea] |
|  | < 10 µM | < 10 µM | Cc1ccc2oc3c(=O)[nH]c(CN4CC[C@H](O)C4)nc3c2c1[N+](=O)O [Compound 424, hydroxy(2-{[(3S)-3-hydroxypyrrolidin-1-yl]methyl}-8-methyl-4-oxo-3,4-dihydro[1]benzofuro[3,2-d]pyrimidin-9-yl)oxoammonium] |
|  | < 10 µM | < 10 µM | COc1cc2oc3c(=O)[nH]c(CN4CC[C@H](O)C4)nc3c2cc1Br [Compound 436, 8-bromo-2-{[(3S)-3-hydroxypyrrolidin-1-yl]methyl}-7-(methyloxy)[1]benzofuro[3,2-d]pyrimidin-4(3H)-one] |
|  | < 10 µM | < 10 µM | O=c1[nH]c(-c2ccc3c(NCC4CCNCC4)n[nH]c3c2)nc2c1oc1ccc(Br)cc12 [Compound 441, 8-bromo-2-{3-[(piperidin-4-ylmethyl)amino]-1H-indazol-6-yl}[1]benzofuro[3,2-d]pyrimidin-4(3H)-one] |
|  | < 10 µM | < 10 µM | O=c1[nH]c(CN2CC[C@H](O)C2)nc2c1oc1ccc(NCc3ccccc3)cc12 [Compound 443, 2-{[(3S)-3-hydroxypyrrolidin-1-yl]methyl}-8-[(phenylmethyl)amino][1]benzofuro[3,2-d]pyrimidin-4(3H)-one] |
|  | < 10 µM | < 10 µM | COc1cccc(CCNc2ccc3oc4c(=O)[nH]c(CN5CC[C@H](O)C5)nc4c3c2)c1OC [Compound 445, 8-({2-[2,3-bis(methyloxy)phenyl]ethyl}amino)-2-{[(3S)-3-hydroxypyrrolidin-1-yl]methyl}[1]benzofuro[3,2-d]pyrimidin-4(3H)-one] |
|  | < 10 µM | < 10 µM | CCCCNc1ccc2oc3c(=O)[nH]c(CN4CC[C@H](O)C4)nc3c2c1 [Compound 446, 8-(butylamino)-2-{[(3S)-3-hydroxypyrrolidin-1-yl]methyl}[1]benzofuro[3,2-d]pyrimidin-4(3H)-one] |
|  | < 10 µM | < 10 µM | O=c1[nH]c(CN2CC[C@H](O)C2)nc2c1oc1ccc(C#CCO)cc12 [Compound 454, 8-(3-hydroxyprop-1-yn-1-yl)-2-{[(3S)-3-hydroxypyrrolidin-1-yl]methyl}[1]benzofuro[3,2-d]pyrimidin-4(3H)-one] |
|  | < 10 µM | < 10 µM | O=c1[nH]c(CN2CC[C@H](O)C2)nc2c1oc1ccc(CCCO)cc12 [Compound 455, 8-(3-hydroxypropyl)-2-{[(3S)-3-hydroxypyrrolidin-1-yl]methyl}[1]benzofuro[3,2-d]pyrimidin-4(3H)-one] |
|  | < 10 µM | < 10 µM | O=c1[nH]c(CN2CC[C@H](O)C2)nc2c1oc1ccc(C#CCCCCO)cc12 [Compound 456, 8-(6-hydroxyhex-1-yn-1-yl)-2-{[(3S)-3-hydroxypyrrolidin-1-yl]methyl}[1]benzofuro[3,2-d]pyrimidin-4(3H)-one] |
|  | < 10 µM | < 10 µM | O=c1[nH]c(CN2CC[C@H](O)C2)nc2c1oc1ccc(CCCCCCO)cc12 [Compound 457, 8-(6-hydroxyhexyl)-2-{[(3S)-3-hydroxypyrrolidin-1-yl]methyl}[1]benzofuro[3,2-d]pyrimidin-4(3H)-one] |
|  | < 10 µM | < 10 µM | Cc1ccccc1CNc1ccc2oc3c(=O)[nH]c(CN4CC[C@H](O)C4)nc3c2c1 [Compound 461, 2-{[(3S)-3-hydroxypyrrolidin-1-yl]methyl}-8-{[(2-methylphenyl)methyl]amino}[1]benzofuro[3,2-d]pyrimidin-4(3H)-one] |
|  | < 10 µM | < 10 µM | O=c1[nH]c(CN2CC[C@H](O)C2)nc2c1oc1ccc(NCc3ccccc3F)cc12 [Compound 462] |
|  | < 10 µM | < 10 µM | O=c1[nH]c(CN2CC[C@H](O)C2)nc2c1oc1ccc(NCc3ccccn3)cc12 [Compound 463, 2-{[(3S)-3-hydroxypyrrolidin-1-yl]methyl}-8-[(pyridin-2-ylmethyl)amino][1]benzofuro[3,2-d]pyrimidin-4(3H)-one] |
|  | < 10 µM | < 10 µM | O=c1[nH]c(CN2CC[C@H](O)C2)nc2c1oc1ccc(NCc3cccc(C(F)(F)F)c3)cc12 [Compound 464, 2-{[(3S)-3-hydroxypyrrolidin-1-yl]methyl}-8-({[3-(trifluoromethyl)phenyl]methyl}amino)[1]benzofuro[3,2-d]pyrimidin-4(3H)-one] |
|  | < 10 µM | < 10 µM | O=c1[nH]c(CN2CC[C@H](O)C2)nc2c1oc1ccc(NCc3ccc(F)cc3F)cc12 [Compound 465, 8-{[(2,4-difluorophenyl)methyl]amino}-2-{[(3S)-3-hydroxypyrrolidin-1-yl]methyl}[1]benzofuro[3,2-d]pyrimidin-4(3H)-one] |
|  | < 10 µM | < 10 µM | COc1ccccc1CNc1ccc2oc3c(=O)[nH]c(CN4CC[C@H](O)C4)nc3c2c1 [Compound 466, 2-{[(3S)-3-hydroxypyrrolidin-1-yl]methyl}-8-({[2-(methyloxy)phenyl]methyl}amino)[1]benzofuro[3,2-d]pyrimidin-4(3H)-one] |
|  | < 10 µM | < 10 µM | COc1cccc(CNc2ccc3oc4c(=O)[nH]c(CN5CC[C@H](O)C5)nc4c3c2)c1 [Compound 467, 2-{[(3S)-3-hydroxypyrrolidin-1-yl]methyl}-8-({[3-(methyloxy)phenyl]methyl}amino)[1]benzofuro[3,2-d]pyrimidin-4(3H)-one] |
|  | < 10 µM | < 10 µM | COc1ccc(CNc2ccc3oc4c(=O)[nH]c(CN5CC[C@H](O)C5)nc4c3c2)cc1 [Compound 468, 2-{[(3S)-3-hydroxypyrrolidin-1-yl]methyl}-8-({[4-(methyloxy)phenyl]methyl}amino)[1]benzofuro[3,2-d]pyrimidin-4(3H)-one] |
|  | < 10 µM | < 10 µM | O=c1[nH]c(CN2CC[C@H](O)C2)nc2c1oc1ccc(NCCc3cccc(F)c3)cc12 [Compound 472, 8-{[2-(3-fluorophenyl)ethyl]amino}-2-{[(3S)-3-hydroxypyrrolidin-1-yl]methyl}[1]benzofuro[3,2-d]pyrimidin-4(3H)-one] |
|  | < 10 µM | < 10 µM | O=c1[nH]c(CN2CC[C@H](O)C2)nc2c1oc1ccc(NCCc3cccc(C(F)(F)F)c3)cc12 [Compound 473, 2-{[(3S)-3-hydroxypyrrolidin-1-yl]methyl}-8-({2-[3-(trifluoromethyl)phenyl]ethyl}amino)[1]benzofuro[3,2-d]pyrimidin-4(3H)-one] |
|  | < 10 µM | < 10 µM | COc1ccc(CCNc2ccc3oc4c(=O)[nH]c(CN5CC[C@H](O)C5)nc4c3c2)cc1OC [Compound 474, 8-({2-[3,4-bis(methyloxy)phenyl]ethyl}amino)-2-{[(3S)-3-hydroxypyrrolidin-1-yl]methyl}[1]benzofuro[3,2-d]pyrimidin-4(3H)-one] |
|  | < 10 µM | < 10 µM | O=c1[nH]c(CN2CC[C@H](O)C2)nc2c1oc1ccc(OCc3ccccc3)cc12 [Compound 475, 2-{[(3S)-3-hydroxypyrrolidin-1-yl]methyl}-8-[(phenylmethyl)oxy][1]benzofuro[3,2-d]pyrimidin-4(3H)-one] |
|  | < 10 µM | < 10 µM | CC(C)COc1ccc2oc3c(=O)[nH]c(CN4CC[C@H](O)C4)nc3c2c1 [Compound 477, 2-{[(3S)-3-hydroxypyrrolidin-1-yl]methyl}-8-[(2-methylpropyl)oxy][1]benzofuro[3,2-d]pyrimidin-4(3H)-one] |
|  | < 10 µM | < 10 µM | CCOC(=O)Cc1ccc2oc3c(=O)[nH]c(CN4CC[C@H](O)C4)nc3c2c1 [Compound 491, ethyl (2-{[(3S)-3-hydroxypyrrolidin-1-yl]methyl}-4-oxo-3,4-dihydro[1]benzofuro[3,2-d]pyrimidin-8-yl)acetate] |

From patent publication US20090247559A1 (Exelixis, Inc., priority 2007, published 2009)
